Tests used:
GPR35 = GPR35 (Homo sapiens, UniProt Q9HC97); details: reported by Wang et al., J. Biol. Chem. 281:22021-22028 (2006); cited from earlier work
[1] = tested on: mouse GPR35 expression in 3T3-L1 adipocytes; test: TaqMan analysis of mouse GPR35 expression in 3T3-L1 adipocytes after treatments; type: cell-based; details: 10 μM Linoleic Acid, 1 and 24 hours, serum free media; control untreated adipocytes at time 0; FIG. 8
Procedure: GPR35 expression in 3T3-L1 adipocytes was then analyzed after certain treatments, such as treatment with linoleic acid. Briefly, 3T3-L1 cells were differentiated into adipocytes using a standardized protocol found in Patel Y M, Lane M D. (Role of calpain in adipocyte differentiation. Proc. Natl. Acad. Sci. USA 96:1279-1284, 1999). Cells were then treated for 1 and 24 hours in serum free media containing either 50 nM insulin (Sigma Cat # I-1882), 10 μM Linoleic Acid (Calbiochem Cat # 436305 lot #B52793), 50 pg/ml IL-1Beta (R&D Systems Cat # 401-ML lot #BN034012), 0.5 ng/mL TNF-alpha (R&D Systems Cat# 410-MT lot # CS083051). Control was untreated 3T3-L1 adipocytes at time 0. RNA was then isolated using Trizol method (Invitrogen Cat # 15596-018). cDNA was made using Biorad iScript cDNA Synthesis Kit.
A 1× TaqMan supermix was made in a 5 mL polypropylene tube. Forward and Reverse primers were added to give a 300 nM final concentration; appropriate amount of probe was added to give a final concentration of 200 nM. Total volume per well was 20 μL. 2 μL was cDNA, while the other 18 μL was TaqMan supermix and nuclease-free water. The sequence for primers and the probe were: […]
The thermo cycler conditions used were: (1) initial steps: hold for 2 minutes at 50° C., then hold for 10 minutes at 95° C. […]

Sequence of GPR35 (Q9HC97 whole entry, species assumed): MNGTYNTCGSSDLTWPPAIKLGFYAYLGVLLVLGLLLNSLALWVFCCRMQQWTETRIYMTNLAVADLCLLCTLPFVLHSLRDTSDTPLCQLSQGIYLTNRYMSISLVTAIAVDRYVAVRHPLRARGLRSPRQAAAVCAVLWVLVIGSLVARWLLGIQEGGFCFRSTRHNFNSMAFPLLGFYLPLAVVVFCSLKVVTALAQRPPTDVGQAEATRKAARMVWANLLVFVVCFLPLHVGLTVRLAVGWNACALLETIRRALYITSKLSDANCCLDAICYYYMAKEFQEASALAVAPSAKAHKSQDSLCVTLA

| Compound | ligand for GPR35 (GPR35) | GPR35 expression in 3T3-L1 adipocytes [1] |
| --- | --- | --- |
| O=C(O)c1cc(=O)c2ccccc2[nH]1 [kynurenic acid] | ligand for GPR35 | – |
| CCCCC/C=C\C/C=C\CCCCCCCC(=O)O [linoleic acid] | – | significantly increased |
